Experimental findings from patent EP0863769B1 (priority 1996, dated 1998) are described below.

The assay concerns the target A/England/12/64. Format: binding, Influenza Viren. Particulars: read-out: Affinität der Bindung an Virus, Kaff.

As to “Poly-N-(2-Hydroxyethyl)-acrylamid mit 20% mol. 6SLN [6SLN-PAA]”, the Kd amounted to 100 nM.
